Reference: article PMC5762338, “A novel orally available Syk/Src/Jak2 inhibitor, SKLB-850, showed potent anti-tumor activities in B cell lymphoma (BCL) models” (Oncotarget, 2017)

How the values were obtained:
[1] = system: CCL4 secretion of Ramos cells; experiment: ELISA of chemokine secretion after anti-IgM and anti-CD40 stimulation; format: cell-based, Human; details: anti-IgM and anti-CD40 induced, 0.1μM, 18 hours, n=3, stimulated without compound 134.80 ± 1.90 pg/mL
Method: (§1) We then measured the concentrations of CCL3 and CCL4 in supernatant of Ramos cells cultured in medium, or medium supplemented with anti-IgM and anti-CD40 in the presence or absence of SKLB-850 after 18 hours. CCL3 and CCL4 are chemokines, which appear to correlate with the signaling capacity of the BCR [26]. As shown in Figure 3A and 3B, SKLB-850 inhibited the increased secretion of CCL3 and CCL4 stimulated by anti-IgM and anti-CD40. The mean CCL3 and CCL4 concentrations in supernatants of Ramos cells after anti-IgM and CD40 stimulation were 3443.00 ± 134.80 pg/mL and 134.80 ± 1.90 pg/mL, respectively.
(§2) To evaluate the effect of SKLB-850 on CCL3 and CCL4 secretion after stimulation of Ramos cells with anti-IgM (30 μg/ml) and anti-CD40 (10 μg/ml), chemokine levels were measured in supernatants of activated BCL cells, as previously described. After 18 hours of anti-IgM and anti-CD40 co-culture, supernatants were harvested and assayed for CCL3 and CCL4 by quantitative enzyme-linked immunosorbent assays according to the manufacturer’s instructions (Quantikine, R&D Systems, Minneapolis, MN, USA).

[2] = system: CCL3 secretion of Ramos cells; experiment: as above; format: cell-based, Human; details: anti-IgM and anti-CD40 induced, 0.1μM, 18 hours, n=3, stimulated without compound 3443.00 ± 134.80 pg/mL
Method: as §1, §2

[3] = system: Syk/ERK, Src/FAK and JAK2/STAT3 signaling pathways in Ramos cell; experiment: Western blot of Syk/ERK, Src/FAK and JAK2/STAT3 signaling; format: cell-based, Human; set-up: Syk, Src, JAK2 phosphorylation (in words): dose or concentration left out as unconfirmed; details: 24 hours
Method: To understand the mechanism of antitumor activities in vivo, pivotal protein activities of Syk/ERK, Src/FAK and JAK2/STAT3 signaling pathways were detected by Western blot analysis. […] Immunohistochemistry assays were performed using tumor tissues isolated from the Ramos tumor model at the end of treatment.
Figure 7 Western blot and histochemical analyses of tumor tissues from the Ramos model (A) SKLB-850 inhibited Syk/ERK, Src/FAK and JAK2/STAT3 signaling pathways. The Ramos cells were incubated for 24 hours in medium containing vehicle, SKLB-850, or R788, and then lysed for western blot assay. (B) H&E staining and immunohistochemical staining of NF-κB, p-Src, p-STAT3 and p-Syk in tumor tissues isolated from vehicle, R788 or SKLB-850 treated groups. SKBL-850 inhibited p-JAK2, p-FAK, p-Src, p-ERK and p-Syk expression in RAMOS cells.
For Ramos cell immunoplot studies, cancer cells were incubated with vehicle, R788, or SKLB-850 for 24 hours, and then lysed in RIPA buffer (Beyotime, China) containing Roche protease inhibitor cocktail, and the protein concentrations were determined by the Bradford method. […]

[4] = target: T1, GRK1 (Homo sapiens, UniProt Q15835); experiment: Kinase inhibition, 33P radiometric assay (Millipore Kinase Profiler); format: biochemical
T1 construct: purchased Millipore (Kinase Profiler service)
Method: (§3) Kinase inhibitory potency of SKLB-850 against a number of selected kinases were measured with gold-standard^33 P radio-labeled technology. […] For the remaining 11 kinases tested, SKLB-850 exibited very weak or no activity (IC50 > 10 μM).
(§4) The IC50 values of SKLB-850 for kinase inhibition in vitro were measured by radiometric assays conducted by Kinase Profiler service provided by Millipore as described in Pan’s study.

[5] = target: T2, GSK3α (Homo sapiens, UniProt P49840); experiment: as above; format: biochemical
T2 construct: purchased Millipore (Kinase Profiler service)
Method: as §3, §4

[6] = target: T3, MKK4 (Mus musculus, UniProt P47809); experiment: as above; format: biochemical
T3 construct: purchased Millipore (Kinase Profiler service)
Method: as §3, §4

[7] = target: T4, FAK (Homo sapiens, UniProt Q05397); experiment: as above; format: biochemical
T4 construct: purchased Millipore (Kinase Profiler service)
Method: as §3, §4

[8] = system: Ki67 and CD20 in Ramos tumor tissues; experiment: Immunohistochemistry of Ki67 and CD20 in tumor tissues from the Ramos model; format: in vivo, NOD/SCID mice; details: mouse tumor tissues
From the text: The ability of inducing apoptosis of SKLB-850 in tumor tissues was examined by TUNEL. […] We then examined apoptotic tumor cells in B-cell lymphoma samples from BCL patients after SKLB-850 treatment by FCM. As shown in Figure 6C and 6F, SKLB-850 induced cell apoptosis (14.10 ± 4.04%), and R788 had the same effect but relatively weak (7.60 ± 0.52%). To better understand the mechanism of antitumor activities in vivo, Ki67 and CD20 in mouse tumor tissues were detected by immunohischemistry; Ki67 was a marker of proliferation in the diagnosis of tumors and CD20 was highly expressed in B cell lymphomas.
Paraffin sections from each group were stained with hematoxylineosin (H&E). For immunohistochemistry studies, tumor tissues in the Ramos model were performed and the following antibodies were used: phospho-Src (Cell Signaling Technology, 1:100), phospho-FAK (Cell Signaling Technology, 1:100), phospho-Stat3 (Cell Signaling Technology, 1:100), NF-κB p-65(Cell Signaling Technology, 1:100) and phospho-Syk (Cell Signaling Technology, 1:100). Additionally, Rat anti-mouse CD31 antibody (BD Biosciences, USA) and anti-Ki67 antibody (Gene Tech) were used to determine vessel density and cell proliferation following the manufacturer’s protocol, respectively. A DAKO polymer secondary antibody system (Dako Envision 1K4007) was used for secondary detection. […]

T2 sequence (P49840 whole entry): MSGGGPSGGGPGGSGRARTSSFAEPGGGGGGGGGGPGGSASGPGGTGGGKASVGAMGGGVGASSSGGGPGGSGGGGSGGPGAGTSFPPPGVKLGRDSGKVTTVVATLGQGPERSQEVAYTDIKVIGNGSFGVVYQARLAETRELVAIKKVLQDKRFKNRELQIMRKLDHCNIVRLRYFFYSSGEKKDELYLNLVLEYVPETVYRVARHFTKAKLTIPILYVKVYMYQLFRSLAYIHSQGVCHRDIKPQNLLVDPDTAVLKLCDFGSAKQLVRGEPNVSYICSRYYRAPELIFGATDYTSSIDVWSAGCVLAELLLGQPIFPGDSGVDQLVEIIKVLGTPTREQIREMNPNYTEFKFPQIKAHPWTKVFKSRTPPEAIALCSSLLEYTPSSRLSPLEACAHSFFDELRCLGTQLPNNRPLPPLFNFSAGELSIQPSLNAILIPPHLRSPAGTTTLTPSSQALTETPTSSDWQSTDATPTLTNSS
T1 sequence (Q15835 whole entry): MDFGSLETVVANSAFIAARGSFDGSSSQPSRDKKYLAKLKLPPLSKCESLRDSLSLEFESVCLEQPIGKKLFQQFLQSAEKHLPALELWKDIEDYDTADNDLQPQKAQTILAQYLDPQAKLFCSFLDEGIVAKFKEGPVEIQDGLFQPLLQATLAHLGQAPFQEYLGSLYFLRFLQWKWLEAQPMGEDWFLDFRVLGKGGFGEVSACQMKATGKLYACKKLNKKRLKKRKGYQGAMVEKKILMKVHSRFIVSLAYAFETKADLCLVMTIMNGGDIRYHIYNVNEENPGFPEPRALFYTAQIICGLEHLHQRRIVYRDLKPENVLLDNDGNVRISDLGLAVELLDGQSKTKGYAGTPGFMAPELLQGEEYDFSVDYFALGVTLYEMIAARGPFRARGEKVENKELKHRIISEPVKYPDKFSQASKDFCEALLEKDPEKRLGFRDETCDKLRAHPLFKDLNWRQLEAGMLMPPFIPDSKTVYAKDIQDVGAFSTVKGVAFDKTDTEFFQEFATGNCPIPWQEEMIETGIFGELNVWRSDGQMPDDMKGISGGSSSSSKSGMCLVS
T4 sequence (Q05397 whole entry): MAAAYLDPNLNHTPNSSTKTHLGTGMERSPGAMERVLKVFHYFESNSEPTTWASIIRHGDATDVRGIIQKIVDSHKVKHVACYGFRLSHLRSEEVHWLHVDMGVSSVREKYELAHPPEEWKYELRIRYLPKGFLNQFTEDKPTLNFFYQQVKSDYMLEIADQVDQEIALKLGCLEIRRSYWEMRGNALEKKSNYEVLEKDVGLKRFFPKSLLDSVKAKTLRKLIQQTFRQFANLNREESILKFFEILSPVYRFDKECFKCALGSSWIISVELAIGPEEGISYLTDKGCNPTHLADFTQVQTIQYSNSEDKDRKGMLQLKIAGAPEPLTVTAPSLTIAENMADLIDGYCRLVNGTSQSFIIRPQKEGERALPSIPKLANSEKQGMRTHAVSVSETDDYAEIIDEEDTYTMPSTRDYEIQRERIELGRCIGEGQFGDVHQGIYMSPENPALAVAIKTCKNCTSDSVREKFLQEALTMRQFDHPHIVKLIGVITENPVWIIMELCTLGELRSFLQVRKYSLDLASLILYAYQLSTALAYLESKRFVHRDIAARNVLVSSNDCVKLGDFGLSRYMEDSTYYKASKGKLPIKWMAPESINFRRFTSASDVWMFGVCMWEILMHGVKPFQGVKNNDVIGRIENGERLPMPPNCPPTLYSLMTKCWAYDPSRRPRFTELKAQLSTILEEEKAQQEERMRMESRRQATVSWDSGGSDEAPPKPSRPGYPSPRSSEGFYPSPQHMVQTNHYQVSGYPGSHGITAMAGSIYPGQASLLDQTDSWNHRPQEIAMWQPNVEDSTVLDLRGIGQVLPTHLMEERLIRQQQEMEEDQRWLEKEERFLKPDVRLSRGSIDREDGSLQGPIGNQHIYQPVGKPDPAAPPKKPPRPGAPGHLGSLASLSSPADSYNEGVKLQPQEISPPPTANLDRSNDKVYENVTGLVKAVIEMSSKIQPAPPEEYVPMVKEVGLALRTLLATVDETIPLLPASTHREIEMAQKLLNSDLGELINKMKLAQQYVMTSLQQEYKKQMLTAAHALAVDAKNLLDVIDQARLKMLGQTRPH
T3 sequence (P47809 2-397 limits assumed): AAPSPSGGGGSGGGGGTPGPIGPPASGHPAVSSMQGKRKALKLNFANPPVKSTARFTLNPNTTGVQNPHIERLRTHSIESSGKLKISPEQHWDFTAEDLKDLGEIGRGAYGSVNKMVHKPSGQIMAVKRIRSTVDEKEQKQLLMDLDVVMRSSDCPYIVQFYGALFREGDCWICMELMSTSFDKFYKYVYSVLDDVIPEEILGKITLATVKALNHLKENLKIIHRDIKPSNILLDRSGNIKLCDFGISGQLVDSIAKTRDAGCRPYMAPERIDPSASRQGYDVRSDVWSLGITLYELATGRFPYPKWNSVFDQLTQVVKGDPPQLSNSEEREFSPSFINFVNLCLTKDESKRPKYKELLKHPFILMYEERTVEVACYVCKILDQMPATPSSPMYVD

CN1CCN(c2ccc(Nc3ncc(F)c(Nc4ccc(Cl)cc4C(N)=O)n3)cc2)CC1 [SKLB-850, 5-chloro-2-((5-fluoro-2-((4-(4-methylpiperazin-1-yl)phenyl)amino)pyrimidin-4-yl)amino) benzamide]
CCL4 level in supernatant [1]: 15.20 ± 0.30 pg/mL | CCL3 level in supernatant [2]: 2303.10 ± 109.40 pg/mL | Syk, Src, JAK2 phosphorylation (in words) [3]: effectively inhibited | phosphorylation levels of ERK, FAK and Stat3 (in words) ([3]; concentrations between 0.01μMl and 1μM/ml): down-regulated | IC50 [4]: > 10 µM | IC50 [5]: > 10 µM | IC50 [6]: > 10 µM | IC50 [7]: 0.39 µM | CD20 expression (in words) [8]: significant reduction | Ki67 expression (in words) [8]: significant reduction
